The source of these data is US9815878B2, “Use of PEDF-derived polypeptides for preventing and/or ameliorating skin aging” (MacKay Memorial Hospital, priority 2012, dated 2017).

One test has as its system MMP-13. Kind of test: UVB-induced MMP-13 mRNA expression in primary mouse dermal fibroblasts, RT-PCR. Format: cell-based. The conditions noted are these: for MMP-13 Expression Level (%): mRNA, Vehicle/UVB set to 100%; for effect on UVB-induced upregulation of MMP-13: cells pretreated with peptide. On the procedure:
(§1) Full-thickness skin tissue was obtained from the dorsum of C57BL/6 mouse. The subcutaneous tissue was carefully dissected from the skin and washed three times in sterile phosphate-buffered saline (PBS). The tissue was then cut into small pieces (1-2 mm^3). After being digested with 0.1% dispase at 4° C. overnight, the epidermal layers were removed, and the remaining dermal parts were further digested with 0.1% collagenase I at 37° C. for another 4 hours. The digested cells were then collected by centrifugation (400 g for 5 minutes) and resuspended in high-glucose DMEM supplemented with 10% FBS, 2 mM L-glutamine, and 1% penicillin-streptomycin antibiotic mixture. Cells were seeded onto tissue-culture plates (Falcon Labware; NJ, USA) at 1×10^3 cells/cm^2 and maintained at 37° C. with 5% CO2. After 24 hours, the medium was discarded to remove residual non-adherent cells, and cell culture was replenished with a fresh medium. For passage, near-confluent cells were harvested with 0.25% trypsin/EDTA.
The total RNA was extracted from cells using the TRIzol (Invitrogen) and treated with RNase-free DNase I (Qiagen, Santa Clarita, Calif.) to remove genomic DNA and then purified with an RNA purification kit (Dynabeads; Invitrogen). 1 μg of total RNA retrieved from primary dermal fibroblast was reverse-transcribed into cDNA by 200 units of expand Reverse-Transcriptase (Roche, Mannheim, Germany) in 20 μl of reaction buffer containing 0.25 μg of random primers and 0.8 mM dNTPs at 42° C. for 1 hour. 2 μl of the cDNA was used for the PCR reaction as templates. PCR was performed in a 30 μl volume containing 15 μl of EconoTaq® PLUS GREEN 2× Master Mix (Lucigen® Corp.), 1 μM of each primer and 2 μl of template DNA. cDNA was synthesized in an 18-22 cycle amplification reaction (denaturation, 20 s, 94° C.; annealing, 30 s, 57° C.; and polymerization, 40 s, 72° C.). The number of cycles for the primer set was chosen to be in the linear range of amplification. The sequences of specific PCR primers were mouse MMP-13 (accession number: NM_008607) sense, […] (SEQ ID NO: 12); antisense, […] (SEQ ID NO: 13); PCR product: 201 bp; and mouse glyceraldehyde 3-phosphate dehydrogenase (GAPDH; accession number: M32599) sense, […] (SEQ ID NO: 14); and anti-sense, […] (SEQ ID NO: 15); PCR product: 223 bp.). The PCR products were electrophoresed in a 2% agarose gel containing ethidium bromide and visualized by UV illumination. The intensities of the PCR products were quantified densitometrically using a FUJI LAS-3000 system and Multi Gauge Ver. 1.01 software (Fujifilm, Tokyo, Japan).
Primary mouse dermal fibroblasts in passage 2 of monolayer cultures were incubated with 1% FBS-DMEM supplemented with or without 100 nM PEDF peptide for 24 hours, and then subjected to UVB irradiation as described above. After UVB irradiation, PBS was replaced with 1% FBS-DMEM with or without PEDF peptide for further 24 hours, and then cellular total RNAs were extracted for subsequent RT-PCR analysis. The expression level of MMP-13 mRNA was normalized with the expression level in the Vehicle/UVB group (set to 100%), and quantitative results are summarized in Table 7.

Test [1] relates to primary mouse dermal fibroblasts. Briefly: Dermal fibroblast proliferation in vitro, BrdU labeling assay. Format: cell-based, C57BL/6 mouse. The conditions noted are these: 24 hours; for BrdU/Vimentin Labeling Index (%): 50 nM peptide in 1% FBS medium, BrdU 2 hours. On the procedure:
as §1
After fixing with 4% paraformaldehyde, cells were exposed to cold methanol for 2 minutes, and then treated with 1 N HCl at room temperature for 1 hour before performing immunofluorescence staining.
BrdU-labeled DNA was detected by polyclonal anti-BrdU antibody and rhodamine-conjugated donkey anti-rabbit IgG. Nuclei were counterstained with Hoechst 33258 (blue).
Primary mouse dermal fibroblasts were isolated and cultured as described in the “Materials and Methods” section. The dermal fibroblast at passage 2 were seeded at gelatin-coated slide in a 6-well plate at a density of 2×10^5 cells per well and cultured in growth medium (DMEM 10% FBS) for 24 hours before being replaced by a basal growth medium with 1% FBS only (control group) or with 1% FBS plus an additional 50 nM of PEDF-derived peptide (i.e., 29-mer, 24-mer, 20-mer, 18-mer, Mo 29-mer, or Mo 20-mer) for 24 hours. For BrdU labeling assay, BrdU (final concentration, 10 μM) was added to the culture for 2 hours. The level of BrdU- and vimentin-double positive cells was expressed as the percentage of BrdU- and vimentin-double positive cells per total vimentin-positive cells (the BrdU/Vimentin Labeling Index), and the results were summarized in Table 2.

[2] abbreviates: 100 nM peptide 24 h before and 24 h after UVB 15 mJ/cm^2.

Take “Ac-SLGAEQRTESIIHRALYYDLISSPDIHGT-NH2 [29-mer]”: the “MMP-13 Expression Level (%)” value is 15.8 ± 1.8 % in the test on MMP-13 (setting [2]) and 4.8 ± 0.63% with MMP-13 (100 nM peptide, no UVB irradiation). For the same substance, the “effect on UVB-induced upregulation of MMP-13” value (from here on “effect … of MMP-13”) in the test on MMP-13 is given as “substantially reduced”. The “BrdU/Vimentin Labeling Index (%)” value in test [1] was determined as 9.6 ± 1.6 %. Also, the “proliferation relative to control medium” value in test [1] (50 nM peptide) is given as “about 5 fold”.
On to EQRTESIIHRALYYDLIS [18-mer], for which the “MMP-13 Expression Level (%)” value with MMP-13 (setting [2]) was determined as 103.3 ± 7.8%. Further, the “effect … of MMP-13” value in the test with MMP-13 was “unable to reduce the UVB-induced upregulation”. Moreover, the “BrdU/Vimentin Labeling Index (%)” value in test [1] was found to be 2.1 ± 0.61%. Besides, the “effect on dermal fibroblast proliferation in vitro” value in test [1] (50 nM peptide) is “failed to elicit such effect”.
Turning to “SLGAEQRTESIIHRALYYDL [20-mer, synthetic peptide corresponding to residues 93-112 of human PEDF]”, in the test with MMP-13 (setting [2]), the “MMP-13 Expression Level (%)” value is on record as 15.8 ± 3.3 %. Also, in the test with MMP-13, the “effect … of MMP-13” value is “substantially reduced”. Besides, in test [1], the “BrdU/Vimentin Labeling Index (%)” value turned out to be 10.4 ± 2.3 %. In test [1] (50 nM peptide), the “proliferation relative to control medium” value was “about 5 fold”.
